Experiments:
[1] = system: Phosphatidylinositol 4,5-bisphosphate 3-kinase catalytic subunit alpha isoform (Homo sapiens), P42336 [C420R]; conditions: Compound concentration 1000.0 nM
[2] = target: Angiopoietin-1 receptor (Homo sapiens) (UniProt Q02763); conditions: Compound concentration 1000.0 nM
Sequence of Angiopoietin-1 receptor (Homo sapiens) (Q02763 whole entry): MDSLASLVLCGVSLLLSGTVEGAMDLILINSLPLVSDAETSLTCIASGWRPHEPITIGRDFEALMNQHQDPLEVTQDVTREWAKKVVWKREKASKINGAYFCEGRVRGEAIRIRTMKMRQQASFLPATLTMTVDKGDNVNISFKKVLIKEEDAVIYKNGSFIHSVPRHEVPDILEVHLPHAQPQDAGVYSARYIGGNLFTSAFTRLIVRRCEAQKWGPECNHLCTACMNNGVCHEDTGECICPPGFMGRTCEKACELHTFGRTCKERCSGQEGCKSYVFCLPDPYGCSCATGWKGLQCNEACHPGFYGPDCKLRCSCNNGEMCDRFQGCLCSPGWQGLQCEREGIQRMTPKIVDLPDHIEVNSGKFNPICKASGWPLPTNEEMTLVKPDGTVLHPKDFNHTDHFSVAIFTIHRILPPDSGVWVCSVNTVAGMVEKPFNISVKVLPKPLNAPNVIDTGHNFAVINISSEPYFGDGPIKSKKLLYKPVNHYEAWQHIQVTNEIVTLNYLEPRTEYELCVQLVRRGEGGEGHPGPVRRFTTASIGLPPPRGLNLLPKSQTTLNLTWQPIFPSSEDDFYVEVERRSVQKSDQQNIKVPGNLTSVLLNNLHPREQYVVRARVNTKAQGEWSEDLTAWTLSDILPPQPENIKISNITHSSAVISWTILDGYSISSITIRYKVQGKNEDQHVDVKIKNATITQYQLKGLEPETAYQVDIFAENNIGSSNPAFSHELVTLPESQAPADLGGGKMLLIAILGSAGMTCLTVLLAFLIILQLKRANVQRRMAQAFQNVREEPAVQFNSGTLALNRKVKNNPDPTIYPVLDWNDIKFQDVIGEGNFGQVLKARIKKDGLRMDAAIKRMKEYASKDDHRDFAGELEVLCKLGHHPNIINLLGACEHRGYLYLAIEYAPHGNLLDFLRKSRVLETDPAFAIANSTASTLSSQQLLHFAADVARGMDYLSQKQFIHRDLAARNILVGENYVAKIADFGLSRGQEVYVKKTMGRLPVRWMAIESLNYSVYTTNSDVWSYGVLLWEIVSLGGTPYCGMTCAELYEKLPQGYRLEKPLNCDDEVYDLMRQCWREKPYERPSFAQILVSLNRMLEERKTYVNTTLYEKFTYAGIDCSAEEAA

Sequence of Phosphatidylinositol 4,5-bisphosphate 3-kinase catalytic subunit alpha isoform (Homo sapiens), P42336 [C420R] (P42336 whole entry C420R, canonical isoform): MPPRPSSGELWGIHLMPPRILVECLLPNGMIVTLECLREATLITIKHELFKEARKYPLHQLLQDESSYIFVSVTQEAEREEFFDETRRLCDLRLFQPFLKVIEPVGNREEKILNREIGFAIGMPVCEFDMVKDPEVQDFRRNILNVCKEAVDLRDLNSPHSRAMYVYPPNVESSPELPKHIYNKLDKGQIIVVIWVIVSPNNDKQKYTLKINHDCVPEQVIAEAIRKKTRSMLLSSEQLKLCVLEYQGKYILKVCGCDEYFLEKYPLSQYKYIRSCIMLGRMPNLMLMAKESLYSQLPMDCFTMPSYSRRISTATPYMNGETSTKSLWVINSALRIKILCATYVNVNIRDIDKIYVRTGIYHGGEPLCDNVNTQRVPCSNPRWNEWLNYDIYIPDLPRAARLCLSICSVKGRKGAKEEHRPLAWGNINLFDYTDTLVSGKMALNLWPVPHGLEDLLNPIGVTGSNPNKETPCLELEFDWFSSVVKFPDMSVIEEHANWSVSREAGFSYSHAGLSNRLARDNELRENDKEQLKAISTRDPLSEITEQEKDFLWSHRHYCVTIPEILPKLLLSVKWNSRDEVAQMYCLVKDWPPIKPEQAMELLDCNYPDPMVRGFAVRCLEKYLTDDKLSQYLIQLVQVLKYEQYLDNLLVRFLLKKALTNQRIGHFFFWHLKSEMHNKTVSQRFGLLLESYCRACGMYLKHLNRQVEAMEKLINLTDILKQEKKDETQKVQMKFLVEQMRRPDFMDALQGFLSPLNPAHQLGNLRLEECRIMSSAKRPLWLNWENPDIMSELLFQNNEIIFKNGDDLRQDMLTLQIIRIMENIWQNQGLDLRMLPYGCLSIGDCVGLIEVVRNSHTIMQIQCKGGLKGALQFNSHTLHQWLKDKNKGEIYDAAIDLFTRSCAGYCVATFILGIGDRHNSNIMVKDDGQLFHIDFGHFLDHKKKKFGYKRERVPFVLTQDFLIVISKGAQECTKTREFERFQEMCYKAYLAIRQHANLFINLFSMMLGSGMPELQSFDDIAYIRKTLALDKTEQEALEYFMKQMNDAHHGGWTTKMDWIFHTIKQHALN

CCOCCn1cc(C(=O)Nc2ccc(-n3nc(-c4cccnc4)cc3C(F)(F)F)cn2)ccc1=O [BI 1935]
residual activity [1]: 93%
residual activity [2]: 87%
